How the values were obtained:
Format in all cases: functional
[1] = Growth inhibition of human SF539 cells at 10 uM after 48 hrs by sulforhodamine B assay; conditions: SF-539, 48 h, values are per cent of control
[2] = Growth inhibition of human Hs 578T cells at 10 uM after 48 hrs by sulforhodamine B assay; conditions: values are per cent of control
[3] = Growth inhibition of human NCI-ADR-RES cells at 10 uM after 48 hrs by sulforhodamine B assay; conditions: values are per cent of control
NCI-H460 = test: Growth inhibition of human NCI-H460 cells at 10 uM after 48 hrs by sulforhodamine B assay; conditions: NCI-H460, 48 h, values are per cent of control
T47D = test: Growth inhibition of human T47D cells at 10 uM after 48 hrs by sulforhodamine B assay; conditions: values are per cent of control
[4] = Growth inhibition of human LOXIMVI cells at 10 uM after 48 hrs by sulforhodamine B assay; conditions: LOX IMVI, values are per cent of control
NCI-H522 = test: Growth inhibition of human NCI-H522 cells at 10 uM after 48 hrs by sulforhodamine B assay; conditions: NCI-H522, 48 h, values are per cent of control
A549 = test: Growth inhibition of human A549/ATCC cells at 10 uM after 48 hrs by sulforhodamine B assay; conditions: A549, 48 h, values are per cent of control
A498 = test: Growth inhibition of human A498 cells at 10 uM after 48 hrs by sulforhodamine B assay; conditions: A498, 48 h, values are per cent of control
M14 = test: Growth inhibition of human M14 cells at 10 uM after 48 hrs by sulforhodamine B assay; conditions: M14, 48 h, values are per cent of control
[5] = Growth inhibition of human DU145 cells at 10 uM after 48 hrs by sulforhodamine B assay; conditions: DU-145, 48 h, values are per cent of control
[6] = Growth inhibition of human SW620 cells at 10 uM after 48 hrs by sulforhodamine B assay; conditions: SW-620, 48 h, values are per cent of control
MDA-MB-231 = test: Growth inhibition of human MDA-MB-231 cells at 10 uM after 48 hrs by sulforhodamine B assay; conditions: MDA-MB-231, 48 h, values are per cent of control
NCI-H23 = test: Growth inhibition of human NCI-H23 cells at 10 uM after 48 hrs by sulforhodamine B assay; conditions: NCI-H23, 48 h, values are per cent of control
[7] = Growth inhibition of human BT549 cells at 10 uM after 48 hrs by sulforhodamine B assay; conditions: BT-549, 48 h, values are per cent of control
ACHN = test: Growth inhibition of human ACHN cells at 10 uM after 48 hrs by sulforhodamine B assay; conditions: values are per cent of control
[8] = Growth inhibition of human UACC62 cells at 10 uM after 48 hrs by sulforhodamine B assay; conditions: UACC-62, 48 h, values are per cent of control
SR = test: Growth inhibition of human SR cells at 10 uM after 48 hrs by sulforhodamine B assay; conditions: values are per cent of control
KM12 = test: Growth inhibition of human KM12 cells at 10 uM after 48 hrs by sulforhodamine B assay; conditions: KM12, 48 h, values are per cent of control
HT-29 = test: Growth inhibition of human HT-29 cells at 10 uM after 48 hrs by sulforhodamine B assay; conditions: HT-29, 48 h, values are per cent of control
[9] = Growth inhibition of human SKOV3 cells at 10 uM after 48 hrs by sulforhodamine B assay; conditions: SK-OV-3, 48 h, values are per cent of control
MDA-MB-468 = test: Growth inhibition of human MDA-MB-468 cells at 10 uM after 48 hrs by sulforhodamine B assay; conditions: MDA-MB-468, 48 h, values are per cent of control
SK-MEL-5 = test: Growth inhibition of human SK-MEL-5 cells at 10 uM after 48 hrs by sulforhodamine B assay; conditions: SK-MEL-5, 48 h, values are per cent of control
[10] = Growth inhibition of human OVCAR5 cells at 10 uM after 48 hrs by sulforhodamine B assay; conditions: OVCAR-5, 48 h, values are per cent of control
K562 = test: Growth inhibition of human K562 cells at 10 uM after 48 hrs by sulforhodamine B assay; conditions: K562, 48 h, values are per cent of control
MDA-MB-435 = test: Growth inhibition of human MDA-MB-435 cells at 10 uM after 48 hrs by sulforhodamine B assay; conditions: MDA-MB-435, 48 h, values are per cent of control
[11] = Growth inhibition of human SNB19 cells at 10 uM after 48 hrs by sulforhodamine B assay; conditions: SNB-19, 48 h, values are per cent of control
[12] = Growth inhibition of human Caki1 cells at 10 uM after 48 hrs by sulforhodamine B assay; conditions: CAKI-1, 48 h, values are per cent of control
[13] = Growth inhibition of human SF268 cells at 10 uM after 48 hrs by sulforhodamine B assay; conditions: SF-268, 48 h, values are per cent of control
NCI-H226 = test: Growth inhibition of human NCI-H226 cells at 10 uM after 48 hrs by sulforhodamine B assay; conditions: NCI-H226, 48 h, values are per cent of control
[14] = Growth inhibition of human HCT116 cells at 10 uM after 48 hrs by sulforhodamine B assay; conditions: HCT-116, 48 h, values are per cent of control
[15] = Growth inhibition of human TK10 cells at 10 uM after 48 hrs by sulforhodamine B assay; conditions: TK-10, 48 h, values are per cent of control
[16] = Growth inhibition of human SF295 cells at 10 uM after 48 hrs by sulforhodamine B assay; conditions: SF-295, 48 h, values are per cent of control
NCI-H322M = test: Growth inhibition of human NCI-H322M cells at 10 uM after 48 hrs by sulforhodamine B assay; conditions: values are per cent of control
SN12C = test: Growth inhibition of human SN12C cells at 10 uM after 48 hrs by sulforhodamine B assay; conditions: values are per cent of control
[17] = Growth inhibition of human HCT15 cells at 10 uM after 48 hrs by sulforhodamine B assay; conditions: HCT-15, 48 h, values are per cent of control
U-251 = test: Growth inhibition of human U251 cells at 10 uM after 48 hrs by sulforhodamine B assay; conditions: U-251, 48 h, values are per cent of control
[18] = Growth inhibition of human OVCAR4 cells at 10 uM after 48 hrs by sulforhodamine B assay; conditions: OVCAR-4, 48 h, values are per cent of control
[19] = Growth inhibition of human OVCAR8 cells at 10 uM after 48 hrs by sulforhodamine B assay; conditions: OVCAR-8, 48 h, values are per cent of control
[20] = Growth inhibition of human COLO205 cells at 10 uM after 48 hrs by sulforhodamine B assay; conditions: COLO 205, 48 h, values are per cent of control

SMILES | growth, % of control at 10 µM [1] [%] | growth, % of control at 10 µM [2] [%] | growth, % of control at 10 µM [3] [%] | growth, % of control at 10 µM (NCI-H460) [%] | growth, % of control at 10 µM (T47D) [%] | growth, % of control at 10 µM [4] [%] | growth, % of control at 10 µM (NCI-H522) [%] | growth, % of control at 10 µM (A549) [%] | growth, % of control at 10 µM (A498) [%] | growth, % of control at 10 µM (M14) [%] | growth, % of control at 10 µM [5] [%] | growth, % of control at 10 µM [6] [%] | growth, % of control at 10 µM (MDA-MB-231) [%] | growth, % of control at 10 µM (NCI-H23) [%] | growth, % of control at 10 µM [7] [%] | growth, % of control at 10 µM (ACHN) [%] | growth, % of control at 10 µM [8] [%] | growth, % of control at 10 µM (SR) [%] | growth, % of control at 10 µM (KM12) [%] | growth, % of control at 10 µM (HT-29) [%] | further results
N#C/C(=C\c1cc(F)cc(F)c1)c1ccc2c(c1)OCO2 | 97.8 | 122 | 106 | 103 | 102 | 105 | 132 | 100 | 111 | 99 | 109 | 105 | 102 | 103 | 94.5 | 109 | 106 | 84.6 | 97.6 | 109 | growth, % of control at 10 µM [9]: 102%; growth, % of control at 10 µM (MDA-MB-468): 102%; growth, % of control at 10 µM (SK-MEL-5): 105%; growth, % of control at 10 µM [10]: 103%; growth, % of control at 10 µM (K562): 106%; growth, % of control at 10 µM (MDA-MB-435): 98.2%; growth, % of control at 10 µM [11]: 110%; growth, % of control at 10 µM [12]: 94.2%; growth, % of control at 10 µM [13]: 101%; growth, % of control at 10 µM (NCI-H226): 102%; growth, % of control at 10 µM [14]: 97.1%; growth, % of control at 10 µM [15]: 119%; growth, % of control at 10 µM [16]: 98.5%; growth, % of control at 10 µM (NCI-H322M): 121%; growth, % of control at 10 µM (SN12C): 106%; growth, % of control at 10 µM [17]: 99.4%; growth, % of control at 10 µM (U-251): 108%; growth, % of control at 10 µM [18]: 107%; growth, % of control at 10 µM [19]: 96.7%; growth, % of control at 10 µM [20]: 105%
COc1cc(/C(C#N)=C/c2ccc3c(c2)OCCO3)cc(OC)c1OC | 2.5 | 18.7 | 17 | 5.2 | 84.4 | 24.7 | -27 | 21.1 | -11 | 5.7 | 6.7 | 25.2 | 13.7 | 20.7 | -17.2 | 34.4 | 45.4 | -11 | 2 | 0.4 | growth, % of control at 10 µM [9]: 17.6%; growth, % of control at 10 µM (MDA-MB-468): -15.1%; growth, % of control at 10 µM (SK-MEL-5): -38%; growth, % of control at 10 µM [10]: 49.1%; growth, % of control at 10 µM (K562): 7.5%; growth, % of control at 10 µM (MDA-MB-435): -22.2%; growth, % of control at 10 µM [11]: 51.2%; growth, % of control at 10 µM [12]: 20%; growth, % of control at 10 µM [13]: 24.6%; growth, % of control at 10 µM (NCI-H226): 43.9%; growth, % of control at 10 µM [14]: -12.3%; growth, % of control at 10 µM [15]: 48.5%; growth, % of control at 10 µM [16]: -8%; growth, % of control at 10 µM (NCI-H322M): 24.2%; growth, % of control at 10 µM (SN12C): 34.5%; growth, % of control at 10 µM [17]: 16.5%; growth, % of control at 10 µM (U-251): 8.1%; growth, % of control at 10 µM [18]: 44.9%; growth, % of control at 10 µM [19]: 10.4%; growth, % of control at 10 µM [20]: -74.4%

Source: ChEMBL document CHEMBL3792365, “Dioxol and dihydrodioxin analogs of 2- and 3-phenylacetonitriles as potent anti-cancer agents with nanomolar activity against a variety of human cancer cells” (2016)
